In brackets after ≈: the same amount, converted by molar mass.
Experiments:
Type in all cases: functional
PC-6 [1] = assay: Compound was tested for growth inhibitory activity after 72 hr of continuous exposure against human lung cancer cell line PC-6; conditions: PC-6, 72 h
PC-6 [2] = assay: Compound was tested for growth inhibitory activity after 72 hr of continuous exposure against vincristine resistant cancer cell line PC-6/VCR; conditions: Homo sapiens, PC-6, 72 h
P388 = assay: Compound was tested for growth inhibitory activity after 72 hr of continuous exposure against mouse leukemia P388; conditions: P388, 72 h

SMILES	GI50 (PC-6 [1]) [µg/mL]	GI50 (PC-6 [2]) [µg/mL]	GI50 (P388) [µg/mL]
CC(=O)OCC1=C2[C@@H](O)C(=O)[C@@]3(C)[C@H]([C@H](OC(=O)c4ccccc4)[C@](O)(C[C@@H]1OC(=O)[C@H](O)[C@@H](NC(=O)OC(C)(C)C)c1ccccc1)C2(C)C)[C@]1(OC(C)=O)CO[C@@H]1C[C@@H]3O	0.163 (≈ 0.188 µM)	> 1	0.181 (≈ 0.209 µM)
CC(=O)O[C@H]1C(=O)[C@@]2(C)[C@H]([C@H](OC(=O)c3ccccc3)[C@]3(O)C[C@H](OC(=O)[C@H](O)[C@@H](NC(=O)OC(C)(C)C)c4ccccc4)C(CN=[N+]=[N-])=C1C3(C)C)[C@]1(OC(C)=O)CO[C@@H]1C[C@@H]2O	0.0524 (≈ 0.0588 µM)	0.39 (≈ 0.438 µM)	0.0401 (≈ 0.045 µM)
CC(=O)O[C@@]12CO[C@@H]1C[C@H](O)[C@@]1(C)C(=O)[C@H](O)C3=C(CC#N)[C@@H](OC(=O)[C@H](O)[C@@H](NC(=O)OC(C)(C)C)c4ccccc4)C[C@@](O)([C@@H](OC(=O)c4ccccc4)[C@H]21)C3(C)C	0.00481 (≈ 0.00578 µM)	0.754 (≈ 0.905 µM)	0.00837 (≈ 0.01 µM)
CC(=O)O[C@@]12CO[C@@H]1C[C@H](O)[C@@]1(C)C(=O)[C@H](O)C3=C(CN4CCOCC4)[C@@H](OC(=O)[C@H](O)[C@@H](NC(=O)OC(C)(C)C)c4ccccc4)C[C@@](O)([C@@H](OC(=O)c4ccccc4)[C@H]21)C3(C)C	> 1	> 1	> 1
CCC1=C2[C@@H](OC(C)=O)C(=O)[C@@]3(C)[C@H]([C@H](OC(=O)c4ccccc4)[C@](O)(C[C@@H]1OC(=O)[C@H](O)[C@@H](NC(=O)OC(C)(C)C)c1ccccc1)C2(C)C)[C@]1(OC(C)=O)CO[C@@H]1C[C@@H]3O	0.0103 (≈ 0.0119 µM)	0.167 (≈ 0.193 µM)	0.00745 (≈ 0.00862 µM)
CC(=O)O[C@H]1C(=O)[C@@]2(C)[C@H]([C@H](OC(=O)c3ccccc3)[C@]3(O)C[C@H](OC(=O)[C@H](O)[C@@H](NC(=O)OC(C)(C)C)c4ccccc4)C(C=O)=C1C3(C)C)[C@]1(OC(C)=O)CO[C@@H]1C[C@@H]2O	0.699 (≈ 0.809 µM)	> 1	> 1
CC(=O)NCC1=C2[C@@H](OC(C)=O)C(=O)[C@@]3(C)[C@H]([C@H](OC(=O)c4ccccc4)[C@](O)(C[C@@H]1OC(=O)[C@H](O)[C@@H](NC(=O)OC(C)(C)C)c1ccccc1)C2(C)C)[C@]1(OC(C)=O)CO[C@@H]1C[C@@H]3O	0.131 (≈ 0.144 µM)	> 1	0.393 (≈ 0.433 µM)
CC(=O)O[C@@]12CO[C@@H]1C[C@H](O)[C@@]1(C)C(=O)[C@H](O)C3=C(C)[C@@H](OC(=O)[C@H](O)[C@@H](NC(=O)OC(C)(C)C)c4ccccc4)C[C@@](O)([C@@H](OC(=O)c4ccccc4)[C@H]21)C3(C)C.O.O.O [DOCETAXEL]	0.00116	0.173	0.00162

From ChEMBL document CHEMBL1129804, “First synthesis and cytotoxic activity of novel docetaxel analogs modified at the C18-position” (1997)
